Like-named read-outs stand apart in the source and are kept apart here.
Experiments:
Assay in all cases: CRE-luciferase assay of odorant receptor activation (Dual-Glo, Hana3A cells, RTP1S), dose-response EC50
Format in all cases: cell-based
[1] = molecular target: T1, human odorant receptors (ORs) (Homo sapiens, UniProt Q8NG81); settings: receptor OR2M7
T1 construct: OR open reading frames were amplified from genomic DNA; expressed in transfected cells; host or cells: Hana3A cells, co-transfected with RTP1S, CRE-luciferase and pRL-SV40
T1 sequence (Q8NG81 1-312): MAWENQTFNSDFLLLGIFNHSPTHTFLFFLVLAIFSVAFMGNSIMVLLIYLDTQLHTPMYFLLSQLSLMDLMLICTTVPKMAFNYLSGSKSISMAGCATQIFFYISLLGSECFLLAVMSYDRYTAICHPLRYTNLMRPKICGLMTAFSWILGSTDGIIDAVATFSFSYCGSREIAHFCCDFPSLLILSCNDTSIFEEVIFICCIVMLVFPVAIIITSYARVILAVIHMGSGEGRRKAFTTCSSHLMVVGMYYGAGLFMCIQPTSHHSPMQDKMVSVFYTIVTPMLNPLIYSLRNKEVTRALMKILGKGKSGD
Outline: (§1)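 Hana3A cells were co-transfected with Rho-tagged OR, RTP1S, CRE-luciferase and pRL-SV40, then exposed to odorant in CD293 medium for 4 hrs at 37° C. Firefly luminescence was divided by Renilla and normalized as (LN−Lmin)/(Lmax−Lmin) per plate set. Each dose was tested at least three times, and EC50 came from sigmoidal fits.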

[2] = molecular target: T2, human odorant receptors (ORs) (Homo sapiens, UniProt O76002)
T2 construct: OR open reading frames were amplified from genomic DNA; expressed in transfected cells; host or cells: Hana3A cells, co-transfected with RTP1S, CRE-luciferase and pRL-SV40
T2 sequence (O76002 1-312): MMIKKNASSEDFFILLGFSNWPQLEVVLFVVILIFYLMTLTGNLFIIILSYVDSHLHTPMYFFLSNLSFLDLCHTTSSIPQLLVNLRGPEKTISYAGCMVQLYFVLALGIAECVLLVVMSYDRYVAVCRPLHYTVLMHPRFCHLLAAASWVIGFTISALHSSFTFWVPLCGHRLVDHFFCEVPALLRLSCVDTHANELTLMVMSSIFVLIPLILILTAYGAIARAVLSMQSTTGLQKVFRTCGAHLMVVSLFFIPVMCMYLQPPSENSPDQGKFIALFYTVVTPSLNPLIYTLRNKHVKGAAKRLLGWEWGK
Outline: as §1

[3] = molecular target: T3, human odorant receptors (ORs) (Homo sapiens, UniProt Q8WZ94); settings: receptor OR5P3
T3 construct: OR open reading frames were amplified from genomic DNA; expressed in transfected cells; host or cells: Hana3A cells, co-transfected with RTP1S, CRE-luciferase and pRL-SV40
T3 sequence (Q8WZ94 1-311): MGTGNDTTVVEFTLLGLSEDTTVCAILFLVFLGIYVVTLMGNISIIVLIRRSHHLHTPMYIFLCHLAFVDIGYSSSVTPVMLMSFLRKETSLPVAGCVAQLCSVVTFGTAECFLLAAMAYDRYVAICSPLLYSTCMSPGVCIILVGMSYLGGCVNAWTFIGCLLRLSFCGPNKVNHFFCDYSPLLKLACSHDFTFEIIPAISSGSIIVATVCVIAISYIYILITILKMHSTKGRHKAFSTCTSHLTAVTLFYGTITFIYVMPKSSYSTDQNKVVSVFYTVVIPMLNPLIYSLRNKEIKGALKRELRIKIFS
Outline: as §1

[4] = molecular target: T4, human odorant receptors (ORs) (Homo sapiens, UniProt O95371); settings: receptor OR2C1; read-out: log EC50 of odorant at OR2C1 (0 = no response) (converted)
T4 construct: OR open reading frames were amplified from genomic DNA; expressed in transfected cells; host or cells: Hana3A cells, co-transfected with RTP1S, CRE-luciferase and pRL-SV40
T4 sequence (O95371 1-312): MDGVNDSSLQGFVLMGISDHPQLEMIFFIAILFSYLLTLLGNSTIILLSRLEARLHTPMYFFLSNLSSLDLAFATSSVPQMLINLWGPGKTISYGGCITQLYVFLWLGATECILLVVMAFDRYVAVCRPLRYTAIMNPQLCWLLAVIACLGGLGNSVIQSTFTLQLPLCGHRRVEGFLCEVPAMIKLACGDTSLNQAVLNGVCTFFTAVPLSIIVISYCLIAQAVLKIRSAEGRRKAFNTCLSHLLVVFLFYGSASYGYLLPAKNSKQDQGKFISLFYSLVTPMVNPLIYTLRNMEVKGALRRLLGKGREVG
Outline: as §1

[5] = read-out: log EC50 (Table 4 value), OR5P3 (converted)

In the case of CC(C)=CCCC(C)CCO (single isomer, unassigned; (-)) [(−)-b-C ? inedol], the EC50 ([1]; 0 = no response, read-out: log EC50, OR2M7 (converted)) is reported as 140 µM.
For CCCCCCCCCCO [1-Decanol], the EC50 [2] was 384 µM.
With C=C(C)[C@H]1CC=C(C)C(=O)C1 [(+)-Carvone] the “log EC50, OR5P3” value ([3]; 0 = no response) was −5.173.
For CCCCCCCO [1-Heptanol], the EC50 ([2]; receptor OR2J2, 0 = no response, read-out: log EC50, OR2J2 (converted)) was 536 µM and the EC50 ([3]; 0 = no response, read-out: log EC50, OR5P3 (converted)) was 1090 µM.
Work on CC(C)=CCC/C(C)=C/CO [Getaniol] yielded an EC50 ([1]; read-out: log EC50 (Table 4 value), OR2M7 (converted)) of 627 µM.
Work on O=c1ccc2ccccc2o1 [Coumarin] yielded an EC50 ([2]; receptor OR2J2, read-out: log EC50 (Table 4 value), OR2J2 (converted)) of 274 µM and an EC50 [3, 5] of 5.62 µM.
In the case of CCCCCCCCCS [Nonanethiol], the EC50 [4] is reported as 128 µM.
With CC(=O)c1ccccc1 [Acetophenone] the EC50 [3, 5] was 126 µM.
With C=C(C)C1CC=C(C)C(=O)C1 (single isomer, unassigned; (-)) [(−)-Carvone] the “log EC50, OR5P3” value ([3]; 0 = no response) was −4.645.
CCCCCCCCS [Octanethiol] was tested, and the EC50 [4] was 88.9 µM.
